11 compounds from US10562869B2, “Oxadiazole compounds” (REMYND NV, priority 2014, dated 2020) can be followed below.

As a reminder, the EC50 is the concentration at which the effect is half-maximal.

One assay concerns INS-1E cells. As to the kind of experiment: Cytokine-induced caspase-3/7 activation in INS-1E cells (beta cell stress/apoptosis model, Caspase-Glo 3/7). The assay is classed as cell-based. The following applies: Rattus norvegicus, cytokine mix (IFN-γ, IL-1β, TNF-α), 24 hours, caspase 3/7 activity, read-out: CYT EC50. The source says: The INS-1E cell line, a rat insulinoma cell line, has been characterized extensively. INS-1E cells respond to glucose by secreting insulin and, unlike most other immortalized β-cell lines, they do this in a consistent manner over time. The cells are sensitive to hyperglycemia-, free fatty acid (FFA)-, and cytokine-induced stress. Prolonged stress ultimately leads to induction of apoptotic pathways and, if stress is not counter-acted, to apoptosis. Caspase-3 and -7 play a central role downstream where various apoptotic pathways merge. As such, activation (i.e. cleavage) of these caspases forms a relevant primary read-out to evaluate protective activity of compounds against stress-induced apoptosis.
To evaluate the efficacy of different compounds to prevent induction of apoptosis, an in vitro screen was developed in which INS-1E cells were exposed to a cytokine mix (IFN-γ, 5 ng/ml; IL-1β, 20 pg/ml; TNF-α, 0.25 ng/ml). The degree of induction of apoptosis was evaluated using a substrate for cleaved caspase-3 and -7, i.e. a proluminescent caspase-3/7 DEVD aminoluciferin substrate with a thermostable luciferase (Caspase-Glo® 3/7 assay; Promega, cat. G8092).
On day 0, INS-1E cells were plated in a white-walled 96-well microplate (Greiner, cat. 655098) at 20,000 cells per well in 100 μl complete medium (RPMI containing 11 mM glucose supplemented with 5% FCS, 100 IU/ml penicillin, 100 μg/ml streptomycin, 10 mM HEPES, 1 mM Sodium Pyruvate and 50 μM 2-Mercapto-ethanol). On day 2, 100 μl medium containing cytokines and compound dissolved in DMSO was added to the cells. Wells without cytokines containing DMSO and wells with cytokines and DMSO were included to evaluate the degree of caspase 3/7 activation by the cytokine mix. After 24 hours exposure to cytokines and/or compound, Caspase-Glo® 3/7 reagent was added to the cells and caspase activity was determined by measuring luminescence.
To evaluate compound efficacy, the “toxicity window” was calculated by subtracting caspase activity of wells without stressor from activity of wells with stressor but without compound. The amount of caspase activity in the latter wells was normalized to 1 and used as reference. Subsequently, caspase activity in the wells with stressor and varying concentrations of compound was calculated relative to the wells without compound. Plotting caspase activity vs the log 10 of the concentration of compound permitted calculation of the EC50 values for the compounds which typically lied between 0.0001 and 10 μM. Compounds with an EC50<10 μM were considered active.

A further assay concerns M17_3SYN cells. As to the kind of experiment: Paraquat-induced cytotoxicity (LDH) in α-synuclein over-expressing M17_3SYN neuroblastoma cells. The conditions noted are these: Homo sapiens, Neuroblastoma cell, 48 h, toxicity inhibition (LDH) in M17_3SYN cells challenged with 6 mM paraquat, 2 days; read-out: SYN EC50. In kind it is cell-based, human. Summed up:
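Human BE-M17 neuroblastoma cells stably overexpressing wild-type α-synuclein challenged with paraquat (final 6 mM) for 2 days at 37 °C alongside compounds over a concentration range. Cytotoxicity as LDH released relative to total LDH; EC50 from dose-dependent inhibition curve.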

A further assay deals with db/db mice. As to the kind of experiment: In vivo evaluation in db/db mice (type 2 diabetes model). The following applies: 15 mg/kg IP, vs vehicle. The source says: For in vivo evaluation of compound efficacy, male BKS.Cg-+Leprdb/Leprdb/OlaHsd mice (db/db mice—Harlan) were used. The db/db phenotype results from a mutation in the leptin receptor gene, leading to a splice variant (Chen, Charlat et al. 1996; Lee, Proenca et al. 1996). The development of type 2 diabetes in db/db mice is associated with reduced insulin levels due to progressive β-cell failure following an initial period of hypersecretion of insulin. Since these mice develop type 2 diabetes in a manner related to pathology development in humans, and the model is accepted as in vivo model for evaluation of novel anti-diabetic treatments by the Food and Drug Administration (FDA, US), it is a highly relevant model for testing candidate drugs for efficacy.
Compounds were administered intraperitoneal (IP) or oral (PO) at a dose of maximally 50 mg/kg. Mice were subjected to metabolic analysis weekly or bi-weekly. These tests included but were not limited to determination of fasting (5 hrs) and non-fasting blood glucose levels, plasma insulin levels, % glycated hemoglobin (HbA1c) levels, glucose tolerance test and insulin sensitivity test.

As for `CSc1ccc(S(=O)(=O)N2CCN(c3nc(C4(c5ccc(F)cc5)CC4)no3)CC2)cc1` [Cmpd110, 1-{3-[1-(4-Fluoro-phenyl)-cyclopropyl]-[1,2,4]oxadiazol-5-yl}-4-(4-methylsulfanyl-benzenesulfonyl)-piperazine], the EC50 with INS-1E cells stood at 10 nM; with M17_3SYN cells, 30 nM. Also, the Plasma insulin levels result with db/db mice (after 6 weeks of treatment, FIG. 1C) is “significantly higher”. Further, the “weight gain (non-fasted body weight)” value in the assay with db/db mice (FIG. 1A) is “increased”. The “Fasted blood glucose levels” value in the assay with db/db mice (FIG. 1B) is “significantly lower”.

For the compound `CSc1ccc(S(=O)(=O)N2CCC3(CC2)CN(c2nc(CC(F)(F)F)no2)C3)cc1` [Cmpd215, 5-(7-((4-(Methylthio)phenyl)sulfonyl)-2,7-diazaspiro[3.5]nonan-2-yl)-3-(2,2,2-trifluoroethyl)-1,2,4-oxadiazole], the EC50 amounted to 145 nM in the assay with INS-1E cells and 274 nM in the assay on M17_3SYN cells.

Regarding `COc1ccc(S(=O)(=O)N2CCN(c3nc(C(C)(C)c4ccc(F)cc4)no3)CC2)cc1` [Cmpd113, 1-{3-[1-(4-Fluoro-phenyl)-1-methyl-ethyl]-[1,2,4]oxadiazol-5-yl}-4-(4-methoxy-benzenesulfonyl)-piperazine], the results for the EC50 with INS-1E cells and with M17_3SYN cells were 1 nM and 8 nM, respectively.

For the compound `COc1ccc(S(=O)(=O)N2CCC3(CC2)CN(c2nc(CC(F)(F)F)no2)C3)cc1` [Cmpd214, 5-(7-((4-Methoxyphenyl)sulfonyl)-2,7-diazaspiro[3.5]nonan-2-yl)-3-(2,2,2-trifluoroethyl)-1,2,4-oxadiazole], the results for the EC50 with INS-1E cells and in the assay with M17_3SYN cells were 55 nM and 164 nM, respectively.

For the compound `CSc1ccc(S(=O)(=O)N2CCN(c3nc(C4(c5cccc(Cl)c5)CC4)no3)CC2)cc1` [Cmpd137, 1-{3-[1-(3-Chloro-phenyl)-cyclopropyl]-[1,2,4]oxadiazol-5-yl}-4-(4-methylsulfanyl-benzenesulfonyl)-piperazine], the values for the EC50 in the assay on INS-1E cells and in the assay on M17_3SYN cells were 9 nM and 7 nM, respectively.

`O=S(=O)(c1ccc(OC(F)F)cc1)N1CCN(c2nc(C3(c4ccccc4)CC3)no2)CC1` [Cmpd122, 1-(4-Difluoromethoxy-benzenesulfonyl)-4-[3-(1-phenyl-cyclopropyl)-[1,2,4]oxadiazol-5-yl]-piperazine]: the EC50 in the assay with INS-1E cells was found to be 43 nM; in the assay with M17_3SYN cells, 9 nM.

For `COc1ccc(S(=O)(=O)N2CCN(c3nc(COCC4CC4)no3)CC2)cc1` [Cmpd203, 3-((Cyclopropylmethoxy)methyl)-5-(4-((4-methoxyphenyl)sulfonyl)piperazin-1-yl)-1,2,4-oxadiazole], the EC50 in the assay with INS-1E cells turned out to be 153 nM; with M17_3SYN cells, 8 nM.

Turning to `COc1ccc(S(=O)(=O)N2CCN(c3nc(C4(c5ccccc5)CC4)no3)CC2)cc1` [Cmpd120, 1-(4-Methoxy-benzenesulfonyl)-4-[3-(1-phenyl-cyclopropyl)-[1,2,4]oxadiazol-5-yl]-piperazine], the EC50 came to 40 nM in the assay on INS-1E cells and 4 nM with M17_3SYN cells.

Consider `CSc1ccc(S(=O)(=O)N2CCN(c3nc(C4(c5ccccc5)CC4)no3)CC2)cc1` [Cmpd126, 1-(4-Methylsulfanyl-benzenesulfonyl)-4-[3-(1-phenyl-cyclopropyl)-[1,2,4]oxadiazol-5-yl]-piperazine], for which the EC50 is 28 nM in the assay on INS-1E cells and 7 nM with M17_3SYN cells.

As for `COc1ccc(S(=O)(=O)N2CCN(c3nc(COc4ccc(F)cc4)no3)CC2)cc1` [Cmpd206, 3-((4-Fluorophenoxy)methyl)-5-(4-((4-methoxyphenyl)sulfonyl)piperazin-1-yl)-1,2,4-oxadiazole], the results for the EC50 in the assay with INS-1E cells and with M17_3SYN cells were 189 nM and 22 nM, respectively.

For the compound `COc1ccc(S(=O)(=O)N2CCN(c3nc(C4(c5cccc(Cl)c5)CC4)no3)CC2)cc1` [Cmpd134, 1-{3-[1-(3-Chloro-phenyl)-cyclopropyl]-[1,2,4]oxadiazol-5-yl}-4-(4-methoxy-benzenesulfonyl)-piperazine], the values for the EC50 with INS-1E cells and in the assay with M17_3SYN cells were 16 nM and 2 nM, respectively.
